From ChEMBL document CHEMBL5465560, “Selectivity Literature for EUbOPEN Chemogenomic Library” (2024)

How the values were obtained:
[1] = target: T1, Dual specificity tyrosine-phosphorylation-regulated kinase 2 (Homo sapiens) (UniProt Q92630); assay: Selectivity interaction (Kinase screening (Nanosyn)) EUB0000604a DYRK2
T1 sequence (whole entry): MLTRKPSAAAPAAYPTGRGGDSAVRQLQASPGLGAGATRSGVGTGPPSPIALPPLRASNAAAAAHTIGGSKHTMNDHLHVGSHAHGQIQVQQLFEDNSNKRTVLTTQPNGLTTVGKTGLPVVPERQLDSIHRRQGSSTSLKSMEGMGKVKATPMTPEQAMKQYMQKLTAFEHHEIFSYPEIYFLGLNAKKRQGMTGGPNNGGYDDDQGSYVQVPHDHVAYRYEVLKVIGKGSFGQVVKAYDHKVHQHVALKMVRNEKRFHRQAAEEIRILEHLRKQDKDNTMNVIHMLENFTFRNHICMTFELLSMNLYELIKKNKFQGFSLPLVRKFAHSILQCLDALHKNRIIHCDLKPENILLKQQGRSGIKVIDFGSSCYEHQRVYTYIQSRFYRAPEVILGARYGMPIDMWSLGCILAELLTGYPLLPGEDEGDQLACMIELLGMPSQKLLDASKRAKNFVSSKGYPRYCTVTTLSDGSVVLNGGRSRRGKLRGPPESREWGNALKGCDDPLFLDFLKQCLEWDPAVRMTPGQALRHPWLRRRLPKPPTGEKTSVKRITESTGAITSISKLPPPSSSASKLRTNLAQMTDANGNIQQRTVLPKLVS

[2] = target: T2, cGMP-dependent protein kinase 1 (Homo sapiens) (UniProt Q13976); assay: Selectivity interaction (KinomeScan (DiscoverX)) EUB0001049a PRKG1; conditions: at 1 µM
T2 sequence (whole entry): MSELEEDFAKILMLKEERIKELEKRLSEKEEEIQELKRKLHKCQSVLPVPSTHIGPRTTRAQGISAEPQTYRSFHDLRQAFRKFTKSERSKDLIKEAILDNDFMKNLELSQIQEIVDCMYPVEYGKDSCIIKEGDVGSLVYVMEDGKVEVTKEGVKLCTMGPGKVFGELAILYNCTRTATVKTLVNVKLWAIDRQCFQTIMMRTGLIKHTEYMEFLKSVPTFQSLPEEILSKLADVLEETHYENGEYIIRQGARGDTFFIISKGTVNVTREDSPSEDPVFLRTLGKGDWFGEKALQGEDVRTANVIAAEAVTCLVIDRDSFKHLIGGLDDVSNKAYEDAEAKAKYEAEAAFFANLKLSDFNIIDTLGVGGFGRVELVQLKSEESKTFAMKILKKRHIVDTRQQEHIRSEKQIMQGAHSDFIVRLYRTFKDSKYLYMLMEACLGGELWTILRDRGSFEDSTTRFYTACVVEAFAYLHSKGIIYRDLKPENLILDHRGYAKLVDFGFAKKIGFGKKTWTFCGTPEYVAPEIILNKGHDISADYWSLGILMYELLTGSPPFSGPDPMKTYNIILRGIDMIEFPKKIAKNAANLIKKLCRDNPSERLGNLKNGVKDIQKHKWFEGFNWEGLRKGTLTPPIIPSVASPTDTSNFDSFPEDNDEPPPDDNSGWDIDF

[3] = target: 5'-AMP-activated protein kinase catalytic subunit alpha-1 (Homo sapiens, UniProt Q13131); assay: Selectivity interaction (ActivX KiNativ screen (kinase selectivity in THP-1 cell lysates)) EUB0000639a PRKAA1; assay type: subcellular; conditions: lysate, at 0.04 µM
Chain of 5'-AMP-activated protein kinase catalytic subunit alpha-1 (Q13131 whole entry, looked up): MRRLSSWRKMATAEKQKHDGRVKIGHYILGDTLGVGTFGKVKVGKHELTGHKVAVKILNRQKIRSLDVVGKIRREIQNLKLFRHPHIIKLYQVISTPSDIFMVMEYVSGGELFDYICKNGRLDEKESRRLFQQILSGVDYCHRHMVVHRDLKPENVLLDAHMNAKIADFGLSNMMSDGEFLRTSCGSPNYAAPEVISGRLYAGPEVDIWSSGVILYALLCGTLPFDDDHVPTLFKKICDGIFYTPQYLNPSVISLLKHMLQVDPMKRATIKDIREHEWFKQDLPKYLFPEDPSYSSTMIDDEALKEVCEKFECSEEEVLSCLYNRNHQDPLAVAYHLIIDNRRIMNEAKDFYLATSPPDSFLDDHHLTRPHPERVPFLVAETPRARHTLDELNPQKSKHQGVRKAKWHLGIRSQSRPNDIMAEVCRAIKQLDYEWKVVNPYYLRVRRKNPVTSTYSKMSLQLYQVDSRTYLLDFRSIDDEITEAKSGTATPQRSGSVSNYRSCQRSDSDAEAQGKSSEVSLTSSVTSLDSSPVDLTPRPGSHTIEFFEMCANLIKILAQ

[4] = target: Calcium/calmodulin-dependent protein kinase type 1D (Homo sapiens) (UniProt Q8IU85); assay: Selectivity interaction (ActivX KiNativ screen (kinase selectivity in THP-1 cell lysates)) EUB0000639a CAMK1D; assay type: subcellular; conditions: lysate, at 1 µM
[5] = Selectivity interaction (PWWP, WD40, and Tudor domain panel (DSLS measurements, literature)) EUB0000270b WDR20
[6] = target: MAP kinase-interacting serine/threonine-protein kinase 2 (Homo sapiens, UniProt Q9HBH9); assay: Selectivity interaction (LanthaScreen Eu Kinase Binding Assay) EUB0001632a MKNK2; conditions: at 10 µM
[7] = target: Protein kinase C delta type (Homo sapiens) (UniProt Q05655); assay: Selectivity interaction (Kinase panel (Z-LYTE Assay)) EUB0001632a PRKCD; conditions: at 10 µM
Chain of Protein kinase C delta type (Homo sapiens) (Q05655 whole entry, looked up): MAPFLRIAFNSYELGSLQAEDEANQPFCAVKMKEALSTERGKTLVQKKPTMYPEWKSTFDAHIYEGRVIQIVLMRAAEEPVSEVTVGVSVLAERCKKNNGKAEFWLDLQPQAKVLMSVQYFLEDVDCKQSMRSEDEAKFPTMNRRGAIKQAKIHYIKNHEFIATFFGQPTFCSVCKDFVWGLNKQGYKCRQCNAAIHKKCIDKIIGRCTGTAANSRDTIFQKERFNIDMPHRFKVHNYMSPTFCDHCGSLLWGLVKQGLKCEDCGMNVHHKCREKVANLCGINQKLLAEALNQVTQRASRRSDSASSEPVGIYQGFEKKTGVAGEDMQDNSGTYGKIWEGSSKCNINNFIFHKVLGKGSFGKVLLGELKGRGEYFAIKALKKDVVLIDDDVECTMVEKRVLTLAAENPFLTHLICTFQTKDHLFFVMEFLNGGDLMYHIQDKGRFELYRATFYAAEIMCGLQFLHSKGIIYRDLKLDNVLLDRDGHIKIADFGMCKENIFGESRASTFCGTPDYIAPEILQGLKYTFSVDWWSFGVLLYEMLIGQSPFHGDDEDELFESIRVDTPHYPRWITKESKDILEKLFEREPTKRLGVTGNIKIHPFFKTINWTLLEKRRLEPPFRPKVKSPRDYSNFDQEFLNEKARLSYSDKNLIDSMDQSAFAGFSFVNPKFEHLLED

[8] = target: Rho-associated protein kinase 2 (Homo sapiens, UniProt O75116); assay: Selectivity interaction (Kinase panel (Z-LYTE Assay)) EUB0001632a ROCK2; conditions: at 10 µM
Chain of Rho-associated protein kinase 2 (O75116 whole entry, looked up): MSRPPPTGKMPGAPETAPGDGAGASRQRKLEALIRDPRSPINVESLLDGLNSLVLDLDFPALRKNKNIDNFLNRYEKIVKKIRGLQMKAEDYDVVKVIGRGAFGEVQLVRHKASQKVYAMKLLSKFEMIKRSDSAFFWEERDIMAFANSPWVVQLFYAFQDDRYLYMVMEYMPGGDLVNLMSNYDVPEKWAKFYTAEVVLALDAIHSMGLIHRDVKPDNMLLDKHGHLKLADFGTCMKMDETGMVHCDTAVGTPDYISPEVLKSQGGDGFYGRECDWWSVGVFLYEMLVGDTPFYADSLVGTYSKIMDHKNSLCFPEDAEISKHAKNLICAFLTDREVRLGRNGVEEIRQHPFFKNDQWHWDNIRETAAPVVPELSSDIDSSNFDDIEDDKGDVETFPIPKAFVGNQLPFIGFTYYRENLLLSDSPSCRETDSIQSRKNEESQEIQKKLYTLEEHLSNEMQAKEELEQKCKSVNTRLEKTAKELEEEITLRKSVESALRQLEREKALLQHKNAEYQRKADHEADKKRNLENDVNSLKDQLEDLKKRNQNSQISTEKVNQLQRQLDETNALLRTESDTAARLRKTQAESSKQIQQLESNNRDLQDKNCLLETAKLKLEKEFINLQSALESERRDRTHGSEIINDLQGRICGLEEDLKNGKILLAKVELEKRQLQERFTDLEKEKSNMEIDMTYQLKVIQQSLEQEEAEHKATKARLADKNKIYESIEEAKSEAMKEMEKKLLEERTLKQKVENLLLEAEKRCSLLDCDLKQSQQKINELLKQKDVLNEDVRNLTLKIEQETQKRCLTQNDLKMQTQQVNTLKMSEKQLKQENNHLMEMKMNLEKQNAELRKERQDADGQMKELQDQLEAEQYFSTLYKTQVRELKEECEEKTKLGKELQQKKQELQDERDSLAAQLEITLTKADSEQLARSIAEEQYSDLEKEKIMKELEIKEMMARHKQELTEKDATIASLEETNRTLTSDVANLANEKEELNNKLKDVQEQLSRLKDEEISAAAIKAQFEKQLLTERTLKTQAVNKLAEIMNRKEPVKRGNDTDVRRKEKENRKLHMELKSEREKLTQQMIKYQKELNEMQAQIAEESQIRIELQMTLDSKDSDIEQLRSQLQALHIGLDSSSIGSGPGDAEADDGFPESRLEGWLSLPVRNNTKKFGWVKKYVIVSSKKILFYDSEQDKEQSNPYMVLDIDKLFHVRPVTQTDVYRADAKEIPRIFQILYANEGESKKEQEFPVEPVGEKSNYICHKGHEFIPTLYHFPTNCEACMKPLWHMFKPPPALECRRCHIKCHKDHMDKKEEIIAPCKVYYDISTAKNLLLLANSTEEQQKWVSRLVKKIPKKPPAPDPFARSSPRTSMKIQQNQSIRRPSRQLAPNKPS

[9] = target: Tyrosine-protein kinase JAK2 (Homo sapiens, UniProt O60674); assay: Selectivity interaction (KinomeScan (DiscoverX)) EUB0000695a JAK2; conditions: at 100 nM
[10] = system: Fibroblast growth factor receptor 3 (Homo sapiens), P22607 [G697C]; assay: (§1) Selectivity interaction (KinomeScan (DiscoverX)) EUB0000695a FGFR3; conditions: at 100 nM
[11] = target: Fibroblast growth factor receptor 3 (Homo sapiens, UniProt P22607); assay: as §1; conditions: at 100 nM
[12] = target: Serine/threonine-protein kinase 25 (Homo sapiens) (UniProt O00506); assay: Selectivity interaction (KinomeScan (DiscoverX)) EUB0000695a STK25; conditions: at 100 nM
[13] = target: Casein kinase I isoform alpha (Homo sapiens, UniProt P48729); assay: Selectivity interaction (KinomeScan (DiscoverX)) EUB0000595a CSNK1A1; conditions: at 10 µM
[14] = target: Myosin light chain kinase, smooth muscle (Homo sapiens, UniProt Q15746); assay: Selectivity interaction (ProQinase) EUB0000171b MYLK
Chain of Myosin light chain kinase, smooth muscle (Q15746 whole entry): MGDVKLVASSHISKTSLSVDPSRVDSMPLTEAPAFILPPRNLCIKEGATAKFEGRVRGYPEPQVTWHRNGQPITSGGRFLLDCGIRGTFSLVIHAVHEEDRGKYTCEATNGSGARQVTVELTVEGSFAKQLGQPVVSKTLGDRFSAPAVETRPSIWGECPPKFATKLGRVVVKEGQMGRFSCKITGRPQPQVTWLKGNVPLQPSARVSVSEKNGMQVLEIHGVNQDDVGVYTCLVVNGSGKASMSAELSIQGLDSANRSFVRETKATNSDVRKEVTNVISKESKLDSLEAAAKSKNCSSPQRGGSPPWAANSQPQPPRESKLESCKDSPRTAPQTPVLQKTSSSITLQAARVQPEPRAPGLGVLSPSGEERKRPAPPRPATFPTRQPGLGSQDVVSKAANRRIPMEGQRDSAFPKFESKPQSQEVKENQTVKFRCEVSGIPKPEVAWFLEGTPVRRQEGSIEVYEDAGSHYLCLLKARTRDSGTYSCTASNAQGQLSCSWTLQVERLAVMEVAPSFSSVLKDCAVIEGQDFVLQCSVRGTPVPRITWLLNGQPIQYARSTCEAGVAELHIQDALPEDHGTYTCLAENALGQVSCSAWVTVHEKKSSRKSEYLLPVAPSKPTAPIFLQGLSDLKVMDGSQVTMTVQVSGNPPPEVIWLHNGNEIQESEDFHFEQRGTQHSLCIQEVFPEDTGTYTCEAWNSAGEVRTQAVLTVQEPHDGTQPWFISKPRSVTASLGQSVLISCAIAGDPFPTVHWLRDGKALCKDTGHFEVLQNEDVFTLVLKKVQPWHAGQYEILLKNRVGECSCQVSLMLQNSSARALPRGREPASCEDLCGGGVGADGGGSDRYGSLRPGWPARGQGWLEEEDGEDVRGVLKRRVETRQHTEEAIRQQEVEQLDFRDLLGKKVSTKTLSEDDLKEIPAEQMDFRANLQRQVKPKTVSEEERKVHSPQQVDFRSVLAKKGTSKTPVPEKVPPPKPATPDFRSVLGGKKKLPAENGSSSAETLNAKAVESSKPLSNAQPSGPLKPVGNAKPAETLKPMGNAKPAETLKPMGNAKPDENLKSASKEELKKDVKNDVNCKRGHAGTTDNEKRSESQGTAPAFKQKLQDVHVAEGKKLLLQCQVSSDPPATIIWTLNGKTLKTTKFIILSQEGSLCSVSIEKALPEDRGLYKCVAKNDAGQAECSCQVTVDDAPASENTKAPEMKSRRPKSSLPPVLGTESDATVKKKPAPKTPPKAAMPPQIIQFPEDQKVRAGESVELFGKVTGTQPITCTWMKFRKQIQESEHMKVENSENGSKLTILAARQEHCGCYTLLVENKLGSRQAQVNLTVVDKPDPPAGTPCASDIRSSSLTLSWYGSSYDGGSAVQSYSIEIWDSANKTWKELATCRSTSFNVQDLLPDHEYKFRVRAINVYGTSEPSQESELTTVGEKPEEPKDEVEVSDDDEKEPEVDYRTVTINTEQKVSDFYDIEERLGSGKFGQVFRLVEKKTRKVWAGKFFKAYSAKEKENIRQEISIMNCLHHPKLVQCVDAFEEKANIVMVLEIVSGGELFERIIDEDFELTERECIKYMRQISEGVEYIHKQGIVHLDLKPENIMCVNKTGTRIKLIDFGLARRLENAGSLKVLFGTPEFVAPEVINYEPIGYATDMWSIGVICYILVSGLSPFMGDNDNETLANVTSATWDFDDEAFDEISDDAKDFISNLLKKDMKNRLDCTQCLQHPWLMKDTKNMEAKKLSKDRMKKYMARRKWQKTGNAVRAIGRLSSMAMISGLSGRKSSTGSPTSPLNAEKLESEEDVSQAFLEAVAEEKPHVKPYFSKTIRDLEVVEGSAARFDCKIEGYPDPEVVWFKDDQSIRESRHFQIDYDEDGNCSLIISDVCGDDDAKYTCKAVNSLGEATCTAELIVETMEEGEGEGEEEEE

[15] = target: Bromodomain-containing protein 3 (Homo sapiens) (UniProt Q15059); assay: Selectivity interaction (Human bromodomain panel (DSF assay)) EUB0000233b BRD3
[16] = target: Angiopoietin-1 receptor (Homo sapiens) (UniProt Q02763); assay: Selectivity interaction (KinomeScan (DiscoverX)) EUB0001619a TEK; conditions: at 1 µM
[17] = target: Dual specificity mitogen-activated protein kinase kinase 2 (Homo sapiens) (UniProt P36507); assay: Selectivity interaction (KinomeScan (DiscoverX)) EUB0000618a MAP2K2; conditions: at 10 µM
Chain of Dual specificity mitogen-activated protein kinase kinase 2 (Homo sapiens) (P36507 whole entry): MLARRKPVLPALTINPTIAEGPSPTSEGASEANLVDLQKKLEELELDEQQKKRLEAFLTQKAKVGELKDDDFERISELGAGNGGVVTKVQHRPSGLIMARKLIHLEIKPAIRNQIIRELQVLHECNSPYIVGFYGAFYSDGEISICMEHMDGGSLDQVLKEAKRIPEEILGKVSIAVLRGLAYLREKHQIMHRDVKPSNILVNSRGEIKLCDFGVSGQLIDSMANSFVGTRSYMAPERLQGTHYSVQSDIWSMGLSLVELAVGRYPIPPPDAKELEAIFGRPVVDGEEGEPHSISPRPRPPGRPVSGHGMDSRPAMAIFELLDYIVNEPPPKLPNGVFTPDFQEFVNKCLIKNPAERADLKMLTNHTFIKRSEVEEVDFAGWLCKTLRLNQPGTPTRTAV

Structure (SMILES): Cc1cnc(Nc2ccc(F)cc2Cl)nc1-c1c[nH]c(C(=O)N[C@H](CO)c2cccc(Cl)c2)c1
- % of inhibition [1]: 3%

Structure (SMILES): COc1cc(Nc2nc(C)cc(-c3cnn4nc(OC)ccc34)n2)cc(C(F)(F)F)c1
- % of control [2]: 92%

Structure (SMILES): CC[C@@H]1[C@H](F)C(=O)N[C@@H]1COc1nccc2cc(C(N)=O)c(OC)cc12 [ZIMLOVISERTIB]
- % of inhibition [3]: 4.2%
- % of inhibition [4]: -1.2%

Structure (SMILES): Cc1cc(CN)cc(C)c1-c1ncn(C)c1-c1cncn1C
- dTagg [5]: 0 K

Structure (SMILES): Cn1cc(-n2cnc3c(NCc4nc5cc(Cl)c(Cl)cc5[nH]4)nc(N4CCOCC4)nc32)cn1
- % of inhibition [6]: -36%
- % of control [7]: -0.676%
- % of control [8]: 3.57%

Structure (SMILES): Cc1cc(F)c(C(=O)Nc2cccc(-c3nncn3C(C)C)n2)cc1-n1cnc(C2CC2)c1
- % of control [9]: 85%
- % of control [10]: 88%
- % of control [11]: 93%
- % of control [12]: 100%

Structure (SMILES): COCC(=O)NC/C=C/c1ccc2ncnc(Nc3ccc(Oc4ccc(C)nc4)c(C)c3)c2c1 [CP-724714]
- % of control [13]: 100%

Structure (SMILES): C=CC(=O)Nc1cccc(C(=O)Nc2ccc(Nc3cc(-c4[nH]c(SC)nc4C)ccn3)cc2)c1
- % of control ([14]; at 1 µM): 84%
- % of control ([14]; at 5 µM): 60%

Structure (SMILES): CN(C)CCCOc1ccc(-c2cc(NCCCn3cccn3)nc(S(C)(=O)=O)n2)cc1
- dTM [15]: < 2 K

Structure (SMILES): N#Cc1cccc(-c2c[nH]c3ncnc(N4CCOCC4)c23)c1
- % of control [16]: 100%

Structure (SMILES): O[C@H]1CC[C@H](Nc2ncc3nc(Nc4c(F)cc(F)cc4F)n([C@H]4CCOC4)c3n2)CC1
- % of control [17]: 100%
